Patent publication US10273229B2, “N-substituted 4-aminoquinazoline derivatives and methods of use” (priority 2014, dated 2019)

What was measured:
[1] = molecular target: ErbB4 (Homo sapiens, UniProt Q15303); test: ErbB4 kinase inhibition (Table 1); assay type: biochemical
[2] = molecular target: Syk (Homo sapiens, UniProt P43405); test: Syk kinase inhibition (Table 1)
[3] = molecular target: T1, EGFR (Homo sapiens, UniProt P00533); test: EGFR kinase inhibition (Table 1)
[4] = molecular target: T2, CYP3A4 (Homo sapiens, UniProt P08684); conditions: in words; for CYP3A4 inhibitor potency after preincubation with the test compound, compared with lapatinib: time dependent arm
T2 sequence (P08684 whole entry): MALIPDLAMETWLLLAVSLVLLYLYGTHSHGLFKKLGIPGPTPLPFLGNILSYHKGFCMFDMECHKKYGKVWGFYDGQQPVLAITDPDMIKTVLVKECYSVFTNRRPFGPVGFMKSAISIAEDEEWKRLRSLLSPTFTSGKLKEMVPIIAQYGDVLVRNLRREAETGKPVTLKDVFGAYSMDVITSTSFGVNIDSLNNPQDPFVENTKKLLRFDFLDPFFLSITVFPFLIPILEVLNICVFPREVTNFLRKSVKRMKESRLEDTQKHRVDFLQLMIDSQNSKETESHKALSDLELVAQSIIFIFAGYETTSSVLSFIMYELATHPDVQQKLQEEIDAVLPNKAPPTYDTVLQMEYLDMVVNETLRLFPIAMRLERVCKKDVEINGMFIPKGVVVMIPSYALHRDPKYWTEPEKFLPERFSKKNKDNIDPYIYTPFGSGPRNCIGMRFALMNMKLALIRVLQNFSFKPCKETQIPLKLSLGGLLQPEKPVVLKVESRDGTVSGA

[5] = molecular target: T3, human ErbB2 (Homo sapiens, UniProt P04626); test: ErbB2 kinase assay, FRET peptide substrate (Example 3); assay type: biochemical; conditions: ErbB2 or EGFR (either kinase); in words
T3 sequence (P04626 23-1255): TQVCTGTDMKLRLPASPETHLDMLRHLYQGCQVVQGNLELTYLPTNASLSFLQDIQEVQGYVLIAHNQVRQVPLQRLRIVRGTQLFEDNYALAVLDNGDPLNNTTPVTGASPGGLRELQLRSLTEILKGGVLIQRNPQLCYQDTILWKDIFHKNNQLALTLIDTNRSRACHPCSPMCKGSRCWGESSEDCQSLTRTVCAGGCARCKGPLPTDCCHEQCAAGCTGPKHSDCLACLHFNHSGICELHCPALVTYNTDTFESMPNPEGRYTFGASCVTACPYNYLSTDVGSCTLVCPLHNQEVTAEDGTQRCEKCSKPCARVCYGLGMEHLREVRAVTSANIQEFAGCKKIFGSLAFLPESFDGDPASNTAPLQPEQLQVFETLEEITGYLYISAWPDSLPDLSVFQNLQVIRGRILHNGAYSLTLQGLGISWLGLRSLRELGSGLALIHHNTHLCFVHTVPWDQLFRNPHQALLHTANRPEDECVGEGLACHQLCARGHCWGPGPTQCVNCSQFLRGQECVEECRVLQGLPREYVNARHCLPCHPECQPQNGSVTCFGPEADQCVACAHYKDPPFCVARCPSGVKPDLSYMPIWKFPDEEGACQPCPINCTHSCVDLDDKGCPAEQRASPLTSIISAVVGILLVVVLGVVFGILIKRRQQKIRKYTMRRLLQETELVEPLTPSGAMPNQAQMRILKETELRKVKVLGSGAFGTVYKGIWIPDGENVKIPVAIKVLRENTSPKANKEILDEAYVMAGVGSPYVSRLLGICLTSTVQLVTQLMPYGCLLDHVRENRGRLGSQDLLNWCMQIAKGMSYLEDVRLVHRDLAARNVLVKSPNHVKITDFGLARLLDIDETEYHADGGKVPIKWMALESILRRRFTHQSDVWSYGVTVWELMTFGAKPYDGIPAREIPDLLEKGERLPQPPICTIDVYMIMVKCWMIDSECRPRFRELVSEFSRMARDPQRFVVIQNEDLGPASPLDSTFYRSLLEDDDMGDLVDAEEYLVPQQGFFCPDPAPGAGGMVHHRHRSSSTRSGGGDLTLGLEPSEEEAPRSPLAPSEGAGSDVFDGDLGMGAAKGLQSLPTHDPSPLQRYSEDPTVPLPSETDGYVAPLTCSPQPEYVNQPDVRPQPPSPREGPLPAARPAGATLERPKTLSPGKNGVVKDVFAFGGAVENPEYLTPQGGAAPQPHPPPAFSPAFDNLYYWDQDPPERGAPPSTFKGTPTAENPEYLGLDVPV
Method: Kinase assays were performed using standard protocols known to those skilled in the art. In brief, kinase, peptide substrate labeled with both coumarin (donor fluorophore) and fluorescein (acceptor fluorophore), ATP, and test compound are incubated together in a kinase reaction buffer. Typically, the reaction was stopped by development reagent (protease) with certain dilution factor after 2 hours. The plate was analyzed in Perkin Elmer Envision by FRET mode. The high ratio of coumarin/fluorescein represents 0% phosphorylation rate while low ratio of coumarin/fluorescein represents 100% phosphorylation rate.

[6] = molecular target: T2, CYP3A4
[7] = molecular target: T3, human ErbB2; test: ErbB2 kinase assay at RBC, 33P-ATP filter binding (Example 5); assay type: biochemical; conditions: in words
Method: The synthesis and biochemical testing of these compounds was completed using alternate CROs as a control for characterizing compounds.
(§1) Kinase assays were performed at RBC using standard protocols known to those skilled in the art. In brief, kinase, any required cofactors, substrate in DMSO, and kinase reaction mixture (by acoustic technology; Echo 550; nanoliter range) were incubated for 20 minutes at room temperature. 33P-ATP was added to initiate the reaction, which was incubated for 2 hours at room temperature.

[8] = molecular target: T1, EGFR; test: EGFR kinase assay at RBC, 33P-ATP filter binding (Example 5); assay type: biochemical; conditions: in words
Method: as §1, with “The synthesis and biochemical testing of these compounds was completed using alternate CROs as a control for characterizing compounds. Kinase” for “Kinase”

[9] = system: BT-474 cells; test: Cytotoxicity against BT-474 cells, CellTiter 96 (Example 4); assay type: cell-based, human; conditions: in words
Method: (§2) All of the test compounds were kept between 4° C. to 8° C. in solid form or as solution in DMSO. The cell lines BT-474 and NCI-N87 were obtained from the ATCC. The cell lines were maintained in liquid nitrogen. Cell lines were prepared by thawing a 1 mL vial of the cell line and splitting it into two T-75 flasks with 10 mL of the appropriate media. BT-474 and NCI-N87 both utilized RPMI 1640 with varying glucose content (1 g/L for BT-474 and 4.5 g/L for NCI-N87). The cell lines were trypsinized and split into two T-150 flasks each time the cell lines reached 70-90% confluency. When there were at least two confluent T-150 flasks of cell lines available, cultures were trypsinized and the cells enumerated using a hemocytometer and added to a 96-well microtiter plate at 1.5×10^5 cells/mL. The 96-well plates were then incubated at 37° C. with 5% CO2 for 24 hours to allow enough time for the cells to adhere to the wells. […] Lapatinib and media without the test compounds were used as controls. All 96-well plates were incubated at 37° C. with 5% CO2 for 3 days with plates containing BT-474 and for 6 days with plates containing NCI-N87. […] After recovery, cell viability was determined using the CellTiter 96® Aqueous One Solution Cell Proliferation Assay kit (Promega). The optical density (OD) was read using a SPECTRAMAX® M5 Microplate Reader (Molecular Devices) at 490 nm. […]

[10] = system: NCI-N87 cells; test: Cytotoxicity against NCI-N87 cells, CellTiter 96 (Example 4); assay type: cell-based; conditions: in words
Method: as §2

[11] = system: BT-474 cells; test: Cytotoxicity against BT-474 cells at RBC, Cell Titer-Glo 2.0 (Example 6); assay type: cell-based, human; conditions: in words
Method: All of the test compounds were kept between 4° C. to 8° C. in solid form or as solution in DMSO. The cell line BT-474 was obtained from the ATCC. Test compounds were dissolved in DMSO (10 mM stock). Cell Titer-Glo® 2.0 Luminescent cell viability assay reagent was obtained from Promega. BT474 human breast cancer cell line was grown in Hybri-care medium supplemented with 1.5 g/L sodium bicarbonate and 10% FBS. 100 μg/ml penicillin and 100 μg/ml streptomycin were added to all culture media. Cultures were maintained at 37° C. in a humidified atmosphere of 5% CO2 and 95% air. Test compounds in DMSO were added in a source plate. 25 nL of test compounds was delivered from the source plate to each well of the 384-well cell culture plates by Echo 550. 25 μl of culture medium containing 1000 cells for each cell line was added to the wells of the cell culture plates. […] The contents were mixed on an orbital shaker for 2 minutes and incubated at room temperature for 10 minutes to stabilize luminescent signal Luminescence was recorded by Envision 2104 Multilabel Reader (Perkin Elmer). The number of viable cells in culture was determined based on quantization of the ATP present in each culture well. The IC50 values were calculated and the IC50 curves were plotted using the GraphPad Prism 4 program based on a sigmoidal dose-response equation.

T1 sequence (P00533 25-1210): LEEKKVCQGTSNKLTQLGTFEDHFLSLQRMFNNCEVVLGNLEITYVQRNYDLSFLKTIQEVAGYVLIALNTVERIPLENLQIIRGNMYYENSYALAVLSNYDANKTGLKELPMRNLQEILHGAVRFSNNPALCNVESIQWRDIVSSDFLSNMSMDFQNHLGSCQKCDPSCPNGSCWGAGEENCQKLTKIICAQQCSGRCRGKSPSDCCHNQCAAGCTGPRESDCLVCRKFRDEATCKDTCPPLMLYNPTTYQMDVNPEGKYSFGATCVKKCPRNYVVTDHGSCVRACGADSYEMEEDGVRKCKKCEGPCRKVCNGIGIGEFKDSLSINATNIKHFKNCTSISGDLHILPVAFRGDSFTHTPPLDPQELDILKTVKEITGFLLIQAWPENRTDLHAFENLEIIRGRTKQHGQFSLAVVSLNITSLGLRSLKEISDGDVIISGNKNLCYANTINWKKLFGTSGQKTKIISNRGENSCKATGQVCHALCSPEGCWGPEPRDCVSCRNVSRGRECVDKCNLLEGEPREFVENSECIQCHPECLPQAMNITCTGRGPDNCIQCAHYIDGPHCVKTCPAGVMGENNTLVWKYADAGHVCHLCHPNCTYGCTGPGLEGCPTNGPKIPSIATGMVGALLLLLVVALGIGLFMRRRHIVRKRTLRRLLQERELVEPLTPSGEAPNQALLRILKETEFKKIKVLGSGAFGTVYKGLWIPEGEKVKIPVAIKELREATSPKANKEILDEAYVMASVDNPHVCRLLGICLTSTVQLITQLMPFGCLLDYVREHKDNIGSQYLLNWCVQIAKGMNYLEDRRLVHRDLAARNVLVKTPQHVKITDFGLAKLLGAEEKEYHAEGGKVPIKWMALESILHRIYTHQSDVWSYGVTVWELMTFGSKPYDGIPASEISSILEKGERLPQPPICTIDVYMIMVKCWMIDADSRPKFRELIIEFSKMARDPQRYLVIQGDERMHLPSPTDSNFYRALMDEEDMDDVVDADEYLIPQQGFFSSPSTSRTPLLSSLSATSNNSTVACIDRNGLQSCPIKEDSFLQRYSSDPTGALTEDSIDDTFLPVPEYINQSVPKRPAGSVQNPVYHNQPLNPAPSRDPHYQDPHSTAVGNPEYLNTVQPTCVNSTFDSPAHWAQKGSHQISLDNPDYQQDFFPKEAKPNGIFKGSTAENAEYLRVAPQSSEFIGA
ErbB4, sequence (Q15303 26-1308, species assumed): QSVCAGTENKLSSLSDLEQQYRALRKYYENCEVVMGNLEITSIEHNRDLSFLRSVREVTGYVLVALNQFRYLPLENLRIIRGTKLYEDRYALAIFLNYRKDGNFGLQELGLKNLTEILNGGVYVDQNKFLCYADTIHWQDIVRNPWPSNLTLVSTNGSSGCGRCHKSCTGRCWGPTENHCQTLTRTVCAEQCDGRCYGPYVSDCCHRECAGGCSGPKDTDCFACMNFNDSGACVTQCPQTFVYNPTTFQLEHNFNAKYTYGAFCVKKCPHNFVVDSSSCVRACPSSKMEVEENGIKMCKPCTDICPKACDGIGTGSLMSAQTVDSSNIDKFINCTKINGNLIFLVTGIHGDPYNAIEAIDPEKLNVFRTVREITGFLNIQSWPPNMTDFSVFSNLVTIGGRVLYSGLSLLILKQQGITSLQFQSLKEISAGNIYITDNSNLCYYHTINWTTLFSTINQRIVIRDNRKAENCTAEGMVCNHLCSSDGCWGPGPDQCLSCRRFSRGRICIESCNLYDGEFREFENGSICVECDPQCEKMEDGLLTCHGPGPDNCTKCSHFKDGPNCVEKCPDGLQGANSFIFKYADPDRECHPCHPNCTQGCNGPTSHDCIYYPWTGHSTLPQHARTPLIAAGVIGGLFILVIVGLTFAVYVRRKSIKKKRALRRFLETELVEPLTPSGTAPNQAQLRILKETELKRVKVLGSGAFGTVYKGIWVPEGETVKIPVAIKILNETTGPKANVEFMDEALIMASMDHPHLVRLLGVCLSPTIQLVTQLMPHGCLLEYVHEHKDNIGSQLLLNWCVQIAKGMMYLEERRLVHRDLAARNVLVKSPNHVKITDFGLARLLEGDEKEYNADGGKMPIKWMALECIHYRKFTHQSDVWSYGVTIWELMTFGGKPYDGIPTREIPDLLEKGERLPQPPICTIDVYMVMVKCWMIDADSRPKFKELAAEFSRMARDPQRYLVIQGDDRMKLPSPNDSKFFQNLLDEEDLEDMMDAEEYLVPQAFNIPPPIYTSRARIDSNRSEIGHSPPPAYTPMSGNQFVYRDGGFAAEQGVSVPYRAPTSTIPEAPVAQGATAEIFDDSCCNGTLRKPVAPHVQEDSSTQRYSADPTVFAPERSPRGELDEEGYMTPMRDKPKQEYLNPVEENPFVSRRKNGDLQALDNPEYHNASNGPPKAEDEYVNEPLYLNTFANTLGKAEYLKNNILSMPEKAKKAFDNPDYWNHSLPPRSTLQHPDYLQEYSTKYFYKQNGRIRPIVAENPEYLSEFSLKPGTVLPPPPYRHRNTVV

SMILES | CYP3A4 inhibitor potency compared with lapatinib [4] | CYP3A4 inhibitor potency after preincubation with the test compound, compared with lapatinib [4] | inhibition of ErbB2 or EGFR, potency compared with lapatinib [5] | Ratio IC50:TD*** [6] | further results
CS(=O)(=O)CCN(O)Cc1ccc(-c2ccc3ncnc(Nc4ccc(OCc5cccc(F)c5)c(Cl)c4)c3c2)o1 [Compound 2] | – | – | – | – | IC50 [1]: 32 nM; IC50 [2]: > 10000 nM; IC50 [3]: 72 nM
CS(=O)(=O)CCN(Cc1ccc(-c2ccc3ncnc(Nc4ccc(OCc5cccc(F)c5)c(Cl)c4)c3c2)o1)OC(N)=O [Compound 3] | less potent | less potent | – | – | –
CN(C)C(=O)ON(CCS(C)(=O)=O)Cc1ccc(-c2ccc3ncnc(Nc4ccc(OCc5cccc(F)c5)c(Cl)c4)c3c2)o1 [Compound 4] | less potent | less potent | – | – | –
COC(=O)ON(CCS(C)(=O)=O)Cc1ccc(-c2ccc3ncnc(Nc4ccc(OCc5cccc(F)c5)c(Cl)c4)c3c2)o1 [Compound 5] | – | – | better potency than lapatinib | ++ | –
CC(=O)N(CCS(C)(=O)=O)Cc1ccc(-c2ccc3ncnc(Nc4ccc(OCc5cccc(F)c5)c(Cl)c4)c3c2)o1 [Compound 8] | – | less potent | better potency than lapatinib | – | –
CS(=O)(=O)CCN(Cc1ccc(-c2ccc3ncnc(Nc4ccc(OCc5cccc(F)c5)c(Cl)c4)c3c2)o1)C1COC1 [Compound 9] | – | less potent | better potency than lapatinib | +++ | BT-474 IC50 compared with lapatinib [9]: lower than those observed for lapatinib; NCI-N87 IC50 compared with lapatinib [10]: lower than those observed for lapatinib; BT-474 IC50 compared with lapatinib [11]: lower IC50 than lapatinib
CS(=O)(=O)CCN(Cc1ccc(-c2ccc3ncnc(Nc4ccc(OCc5cccc(F)c5)c(Cl)c4)c3c2)o1)C1CCC1 [Compound 10] | less potent | less potent | better potency than lapatinib | + | time dependent shift of CYP3A4 inhibition compared with lapatinib [4]: possible exception

Further lines, with some results ahead:

CYP3A4 inhibitor potency compared with lapatinib [4] | CYP3A4 inhibitor potency after preincubation with the test compound, compared with lapatinib [4] | inhibition of ErbB2 or EGFR, potency compared with lapatinib [5] | SMILES | Ratio IC50:TD*** [6] | further results
less potent | less potent | better potency than lapatinib | CS(=O)(=O)CCN(CC(=O)O)Cc1ccc(-c2ccc3ncnc(Nc4ccc(OCc5cccc(F)c5)c(Cl)c4)c3c2)o1 [Compound 6] | +++ | ErbB2 inhibition potency compared with lapatinib [7]: better potency than lapatinib; EGFR inhibition potency compared with lapatinib [8]: better potency than lapatinib
less potent | less potent | better potency than lapatinib | CS(=O)(=O)CCN(Cc1ccc(-c2ccc3ncnc(Nc4ccc(OCc5cccc(F)c5)c(Cl)c4)c3c2)o1)S(C)(=O)=O [Compound 7] | ++ | BT-474 IC50 compared with lapatinib [9]: lower than those observed for lapatinib; NCI-N87 IC50 compared with lapatinib [10]: lower than those observed for lapatinib
